Assays:
[1] = test system: BCSCs; details: cited from earlier work
[2] = test system: triple-negative breast cancer (TNBC) cells; assay: Cell viability studies with CAST compounds; type: cell-based; details: for concentration level at which efficacy on tumor cell viability was shown: TNBC cell viability
[3] = test system: LASP1-eIF4A interaction in 231S cells; assay: Proximity ligation assay (PLA) of LASP1-eIF4A interaction; type: cell-based, human; details: 100 nM AMD3465 30 min prior to 20 nM CXCL12 5 min
Protocol: The Duolink In Situ Orange Fluorescent kit (Sigma/Aldrich, St. Louis, Mo., Cat. No. DUO92102-1KT) was employed to detect the endogenous interaction between LASP1 and eIF4A in situ in 231S cells. The PLA was performed according to the manufacturer's instructions using a rabbit eIF4A1 antibody (Cohesion Biosciences, London, Purley, Cat. No. CQA1180) and a mouse LASP1 antibody (Biolegend, San Diego, Calif., Cat. No. 909301). The single Ab control condition represents the PLA reaction with only the LASP1 antibody. In addition, cells were stained with phalloidin (Life Technologies, Carlsbad, Calif., Cat. No. A12379) and nuclei with DRAQ5 (Thermo Scientific, Rockford, Ill., Cat No. 62251). Cells were stimulated and inhibited as described. Moreover, cells were fixed, stained, and permeabilized with standard methods. The images were acquired by two-photon confocal microscopy and processed with Leica Application Suite X software (Leica, Wetzlar, Germany). Quantification of the interaction dots was performed using ImageJ.

[4] = test system: eIF4F complex in 231S cells; assay: m7GTP pulldown assay (eIF4F complex); type: cell-based, human
Protocol: 231S cells were serum starved for 1 h and cells were stimulated (and prepared) as described in the co-immunoprecipitation section. 100 nM AMD3465 (CXCR4 antagonist, Sigma-Aldrich, St. Louis, Mo., Cat. No. SML1433-5MG) was incubated 30 min prior to stimulation. 1 mg of total protein lysate in 1 mL of Co-IP buffer was incubated with 25 μL of m7-GTP agarose beads overnight at 4° C. (Jena Biosciences, Jena, Germany, Cat. No. AC-155S). Following incubation, beads were washed with Co-IP buffer. Protein was eluted and analyzed by SDS-PAGE and Western blotting.

[5] = test system: CXCR4 signaling in 231S cells; assay: Western blotting of phosphorylation of eIF4B, PDCD4, 4E-BP1 after CXCR4 activation; type: cell-based, human
Protocol: Cell lysates were prepared and quantified as described. Western blots were incubated with the following 1° Abs: Cyclin D1 (Cell Signaling Technology, Danvers, Mass., Cat. No. 2922), eIF4A C32B4 (Cell Signaling Technology, Danvers, Mass., Cat. No. 2013), eIF4B 1F5 (Cell Signaling Technology, Danvers, Mass., Cat. No. 13088), p-eIF4B S422 (Thermo Scientific, Rockford, Ill., Cat No. PA5-38362), eIF4E C46H6 (Cell Signaling Technology, Danvers, Mass., Cat. No. 2067), eIF4G C45A4 (Cell Signaling Technology, Danvers, Mass., Cat. No. 2469), GST 26H1 (Cell Signaling Technology, Danvers, Mass., Cat. No. 2624), LASP1 8C6 (Biolegend, San Diego, Calif., Cat. No. 909301), MDM2 SMP14 (Santa Cruz Biotechnology, Dallas, Tex., Cat. No. sc-965), PDCD4 D29C6 (Cell Signaling Technology, Danvers, Mass., Cat. No. 9535), p-PDCD4 S67 (Sigma-Aldrich, St. Louis, Mo., Cat. No. P0072), ROCK1 C8F7 (Cell Signaling Technology, Danvers, Mass., Cat. No. 4035), survivin 71G4B7 (Cell Signaling Technology, Danvers, Mass., Cat. No. 2808), 4E-BP1 53H11 (Cell Signaling Technology, Danvers, Mass., Cat. No. 9644), p-4E-BP1 Thr70 (Cell Signaling Technology, Danvers, Mass., Cat. No. 9455), and β-tubulin D66 (Sigma/Aldrich, St. Louis, Mo., Cat. No. T0198). Following primary incubation, Western blots were incubated with Goat anti-Mouse IgG (H+L) Superclonal™ Secondary Ab conjugated to HRP (Thermo Scientific, Rockford, Ill., Cat No. A28177) or Goat anti-Rabbit IgG (H+L) Superclonal™ Secondary Ab conjugated to HRP (Thermo Scientific, Rockford, Ill., Cat No. A27036). Finally, blots were developed with Amersham™ ECL™ Prime Western Blotting Detection Reagent (GE Healthcare Life Sciences, Pittsburgh, Pa., Cat. No. RPN2232) and HyBlot ES™ Autoradiography Film (Denville Scientific, Swedesboro, N.J., Cat. No. E3212). Densitometry of the Western blots was performed using ImageJ. Calculation of fold change is given in the figure legend for each experiment.

[6] = biological target: T1, eIF4A1 (Homo sapiens, UniProt P60842); type: cell-based; details: 3 different TNBC cell lines
T1 construct: A GQ-5′-UTR dual reporter was created in breast cancer cell lines; endogenous in cells
T1 sequence (P60842 whole entry): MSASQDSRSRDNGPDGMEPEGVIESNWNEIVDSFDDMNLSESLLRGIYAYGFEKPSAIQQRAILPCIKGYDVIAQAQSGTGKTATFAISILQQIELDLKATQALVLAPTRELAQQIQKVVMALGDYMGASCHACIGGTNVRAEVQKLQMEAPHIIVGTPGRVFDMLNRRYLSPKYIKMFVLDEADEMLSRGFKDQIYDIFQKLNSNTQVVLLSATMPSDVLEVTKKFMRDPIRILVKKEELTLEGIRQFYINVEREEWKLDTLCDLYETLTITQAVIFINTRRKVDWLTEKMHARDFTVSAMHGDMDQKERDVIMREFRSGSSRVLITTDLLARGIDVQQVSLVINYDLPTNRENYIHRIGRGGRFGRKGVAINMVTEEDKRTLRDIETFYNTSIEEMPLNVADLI
Source text: A GQ-5′-UTR dual reporter was created in breast cancer cell lines which would report either a reduction in td-Tomato fluorescence or luciferase activity if eIF4A1 is inhibited by any of the compounds in the Prestwick library (FIGS. 26A-26B).

[7] = test system: SUM-159-PT TNBC cells; assay: Evaluation of paclitaxel-resistant SUM-159-PT cells; type: cell-based, human
Protocol: (§1) Briefly, to assess the cell viability, 3×10^3 cells/well (SUM-159PT, SUM Pac 200 nM, MDA-Bone-Un eIF4A CC and KO) were seeded and the cells were allowed to attach and spread overnight under adherent or non-adherent low attachment conditions.

[8] = test system: SUM-159PT cells; assay: Immunoblotting of SUM-159PT cells after chronic paclitaxel treatment (Pac 200)
[9] = test system: paclitaxel-resistant SUM-159PT cells; assay: Chemosensitivity to paclitaxel of CRISPR control and eIF4A1-KO cells derived from paclitaxel-resistant SUM-159PT (CellTiter-Glo); type: cell-based, human; details: 48 h; for IC50: Homo sapiens, SUM-159-PT
Protocol: as §1
For generation of CRISPR/Cas9-mediated eIF4A1 knockout (KO), a set of CRISPR/Cas9 plasmids (Santa Cruz, Dallas, Tex., Cat. #—sc-402623) were transfected into therapy-naïve and paclitaxel-resistant tumor cells using UltraCruz reagent (Santa Cruz, Dallas, Tex., Cat. #— sc-395739) following the manufacturer's instructions. After 24 h, the supernatant was removed and replaced with regular media and cells were further cultured for a total of 72 h. eIF4A1 KO cells were sorted out based on the expression of green fluorescent protein (GFP). Single KO cells were isolated by limiting dilution in 96-well plates. The KO was verified by immunoblotting for eIF4A. Non-targeting CRISPR/Cas9 plasmids were employed to obtain the CRISPR-control cells (Santa Cruz, Dallas, Tex., Cat. #—sc-418922).

[10] = Pac 200 vs therapy naïve SUM-159PT
[11] = paclitaxel-resistant vs therapy-naïve SUM-159-PT

O=C(O)C(Cc1ccccc1[N+](=O)[O-])=NNc1nc(-c2ccc(Cl)c(Cl)c2)cs1 (mixture of isomers) [4EGI-1]
NANOG, OCT4 levels ([1]; 4EGI-1 treated BCSCs): downregulated | proliferation of BCSCs [1]: effectively inhibited

O=C(N/C(=C/c1cccnc1)c1nc2ccccc2[nH]1)c1cccc(Br)c1 [AE-848/14270010]
cytotoxicity at 50 µM ([2]; CRISPR/control cells, lowest concentration of 50 μM, read-out: loss of viability of TNBC cells): ~35% | viability at 50 µM ([2]; LASP1-knockout cells, 50 μM): 50% | loss of viability ([2]; LASP1 genetically knocked out): 50% | concentration level at which efficacy on tumor cell viability was shown [2]: 50 µM | cell viability change ([2]; eIF4A1 knocked out cells): gain in viability

c1ccc(CNCc2ccc(CN3CCCNCCNCCCNCC3)cc2)nc1 [AMD3465]
LASP1-eIF4A interaction dots (interactions/cell) [3]: 13.3±10.2 dots | effect on peak eIF4G recruitment at 5 min of CXCL12 ([4]; 100 nM AMD3465): reduced | effect on CXCL12-dependent recruitment of LASP1 at 5 min ([4]; pre-treatment 100 nM AMD3465): abrogated | effect on CXCL12-induced increase in p-eIF4B levels at 10 min ([5]; AMD3465): abrogated | effect on CXCL12-induced increase in pT70-4E-BP1 levels ([5]; AMD3465): abrogated | effect on CXCL12-induced increase in pS67-PDCD4 level at 5 min ([5]; AMD3465 pretreatment): abrogated

Clc1ccccc1COc1ccc2ccccc2c1CNCc1cccnc1 [AN-465/41673523]
concentration level at which efficacy on tumor cell viability was shown [2]: 75 µM

C[C@]12CC[C@H](O)C[C@H]1CC[C@@H]1[C@@H]2CC[C@]2(C)[C@@H](C3=CC(=O)OC3)CC[C@]12O [digitoxigenin]
activity of eIF4A1 [6]: potently inhibited

COc1cccc2c1C(=O)c1c(O)c3c(c(O)c1C2=O)C[C@@](O)(C(=O)CO)C[C@@H]3O[C@H]1C[C@H](N)[C@H](O)[C@H](C)O1 [doxorubicin]
cross-resistance of paclitaxel-resistant cells ([7]; paclitaxel-resistant SUM-159-PT cells): cross-resistant

CC(=O)O[C@H]1C[C@H](O[C@H]2[C@@H](O)C[C@H](O[C@H]3[C@@H](O)C[C@H](O[C@H]4CC[C@@]5(C)[C@H](CC[C@@H]6[C@@H]5C[C@@H](O)[C@]5(C)[C@@H](C7=CC(=O)OC7)CC[C@]65O)C4)O[C@@H]3C)O[C@@H]2C)O[C@H](C)[C@H]1O[C@@H]1O[C@H](CO)[C@@H](O)[C@H](O)[C@H]1O [lanotoside C]
activity of eIF4A1 [6]: potently inhibited

CC(=O)O[C@H]1C(=O)[C@@]2(C)[C@H]([C@H](OC(=O)c3ccccc3)[C@]3(O)C[C@H](OC(=O)[C@H](O)[C@@H](NC(=O)c4ccccc4)c4ccccc4)C(C)=C1C3(C)C)[C@]1(OC(C)=O)CO[C@@H]1C[C@@H]2O [paclitaxel]
IC50 ([7]; Homo sapiens, SUM-159-PT, parental SUM-159-PT cells, paclitaxel): 2 nM | resistance factor ([7]; paclitaxel-resistant vs parental SUM-159-PT): 675.5 fold | enhanced expression of Cyclin D3 [8, 10]: 2.7 fold | enhanced expression of NANOG [8, 10]: 1.4 fold | enhanced expression of OCT4 [8, 10]: 3 fold | enhanced expression of SOX2 [8, 10]: 2.7 fold | enhanced expression of survivin or BIRC5 [8, 10]: 4 fold | increase in ABCB1 (P-glycoprotein, MDR1) protein level [8, 10]: 10.8 fold | increase in ABCG2 (BCRP) protein level [8, 10]: 2.4 fold | increase in ALDH1A1 level [8, 10]: 2.4 fold | increase in CD44 level [8, 10]: 6.1 fold | increase in expression of eIF4A [8, 10]: 25.8 fold | enhanced expression of ROCK1 ([8]; Pac 200 vs therapy naïve SUM-159PT, not statistically significant): 1.5 fold | expression of E-cadherin [8, 11]: decreasing trend | increase in Snail1 protein level [8, 11]: 2 fold | increase in ABCB1 protein level, independent verification ([8]; three biological replicates, p<0.0001): 14 fold | increase in ABCG2 protein level, independent verification ([8]; three biological replicates, p<0.001): 4 fold | IC50 ([9]; CRISPR-control SUM-159PT cells (from Pac 200)): 904 nM | IC50 ([9]; eIF4A1-KO cells (from Pac 200)): 609 nM | change in IC50, eIF4A1-KO vs CRISPR-control ([9]; paclitaxel): −1.5 fold

— patent publication US12653805B2, “Targeting LASP1, eIF4A1, eIF4B and CXC4 with modulators and combinations thereof for cancer therapy” (The University of Toledo, priority 2019, dated 2026)
